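Briefly, cells in 96-well plates were exposed to five compound concentrations for 48 h, and endpoints were estimated by linear interpolation. At the GI50, growth is halved. Definition used: TGI = concentration required for complete inhibition of growth.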
Tests used:
Assay in all cases: inhibition of tumour cell growth, NCI panel, 48 h
HS 578T breast = system: HS 578T breast
A549 NSCLC = system: A549 NSCLC
LOX IMVI melanoma = system: LOX IMVI melanoma
HCT-15 colon = system: HCT-15 colon
MDA-MB-435 = system: MDA-MB-435
PC-3 prostate = system: PC-3 prostate
BT-549 breast = system: BT-549 breast
SK-MEL-28 melanoma = system: SK-MEL-28 melanoma
CCRF-CEM leukemia = system: CCRF-CEM leukemia
NCI-H226 lung = system: NCI-H226 lung
UACC-62 melanoma = system: UACC-62 melanoma
SF-539 CNS = system: SF-539 CNS
SF-268 CNS = system: SF-268 CNS
MCF7 breast = system: MCF7 breast
SK-OV-3 ovarian = system: SK-OV-3 ovarian
HT29 colon = system: HT29 colon
TK-10 renal = system: TK-10 renal
HL-60(TB) leukemia = system: HL-60(TB) leukemia
HCT-116 colon = system: HCT-116 colon
SF-295 CNS = system: SF-295 CNS
NCI-H23 lung = system: NCI-H23 lung
HOP-62 NSCLC = system: HOP-62 NSCLC
NCI-H460 lung = system: NCI-H460 lung
OVCAR-8 ovarian = system: OVCAR-8 ovarian
HCC-2998 colon = system: HCC-2998 colon
UACC-257 melanoma = system: UACC-257 melanoma
OVCAR-5 ovarian = system: OVCAR-5 ovarian
OVCAR-4 ovarian = system: OVCAR-4 ovarian
DU-145 prostate = system: DU-145 prostate
HOP-92 NSCLC = system: HOP-92 NSCLC
ACHN renal = system: ACHN renal
CAKI-1 renal = system: CAKI-1 renal
SNB-75 CNS = system: SNB-75 CNS
MDA-MB-231 breast = system: MDA-MB-231 breast
786-0 renal = system: 786-0 renal
NCI-H522 lung = system: NCI-H522 lung
RPMI-8226 leukemia = system: RPMI-8226 leukemia
T-47D breast = system: T-47D breast
RXF 393 renal = system: RXF 393 renal
SK-MEL-5 melanoma = system: SK-MEL-5 melanoma
COLO 205 colon = system: COLO 205 colon
SN12C renal = system: SN12C renal
NCI/ADR-RES ovarian = system: NCI/ADR-RES ovarian
M14 melanoma = system: M14 melanoma
SW-620 colon = system: SW-620 colon
U251 CNS = system: U251 CNS
MOLT-4 leukemia = system: MOLT-4 leukemia
EKVX NSCLC = system: EKVX NSCLC
SNB-19 CNS = system: SNB-19 CNS
SR leukemia = system: SR leukemia
MALME-3M melanoma = system: MALME-3M melanoma
K-562 leukemia = system: K-562 leukemia
OVCAR-3 ovarian = system: OVCAR-3 ovarian
A498 renal = system: A498 renal
KM12 colon = system: KM12 colon
IGROV1 ovarian = system: IGROV1 ovarian
SK-MEL-2 melanoma = system: SK-MEL-2 melanoma
UO-31 renal = system: UO-31 renal

SMILES: O=C(Nc1ccc(F)cc1F)c1cc(Br)ccc1O
- GI50 (HS 578T breast): 2.24 µM
- TGI (HS 578T breast): 8.35 µM
- GI50 (A549 NSCLC): 3.26 µM
- TGI (A549 NSCLC): > 100 µM
- GI50 (LOX IMVI melanoma): 2.91 µM
- TGI (LOX IMVI melanoma): 21.2 µM
- GI50 (HCT-15 colon): 3.04 µM
- TGI (HCT-15 colon): 17.3 µM
- GI50 (MDA-MB-435): 2.82 µM
- TGI (MDA-MB-435): 11.9 µM
- GI50 (PC-3 prostate): 2.45 µM
- TGI (PC-3 prostate): 8.35 µM
- GI50 (BT-549 breast): 1.99 µM
- TGI (BT-549 breast): 5.51 µM
- GI50 (SK-MEL-28 melanoma): 1.43 µM
- TGI (SK-MEL-28 melanoma): 6.24 µM
- GI50 (CCRF-CEM leukemia): 3.71 µM
- TGI (CCRF-CEM leukemia): 69.3 µM
- GI50 (NCI-H226 lung): 2.62 µM
- TGI (NCI-H226 lung): 23.8 µM
- GI50 (UACC-62 melanoma): 1.23 µM
- TGI (UACC-62 melanoma): 3.82 µM
- GI50 (SF-539 CNS): 2.68 µM
- TGI (SF-539 CNS): 10.9 µM
- GI50 (SF-268 CNS): 2.78 µM
- TGI (SF-268 CNS): 38.7 µM
- GI50 (MCF7 breast): 2.56 µM
- TGI (MCF7 breast): > 100 µM
- GI50 (SK-OV-3 ovarian): 0.53 µM
- TGI (SK-OV-3 ovarian): 3.5 µM
- GI50 (HT29 colon): 3.53 µM
- TGI (HT29 colon): > 100 µM
- GI50 (TK-10 renal): 4.83 µM
- TGI (TK-10 renal): > 100 µM
- GI50 (HL-60(TB) leukemia): 2.44 µM
- TGI (HL-60(TB) leukemia): 7.17 µM
- GI50 (HCT-116 colon): 2.47 µM
- TGI (HCT-116 colon): 8.45 µM
- GI50 (SF-295 CNS): 1.9 µM
- TGI (SF-295 CNS): 3.76 µM
- GI50 (NCI-H23 lung): 2.43 µM
- TGI (NCI-H23 lung): 9.21 µM
- GI50 (HOP-62 NSCLC): 2.69 µM
- TGI (HOP-62 NSCLC): 12.7 µM
- GI50 (NCI-H460 lung): 2.9 µM
- TGI (NCI-H460 lung): > 100 µM
- GI50 (OVCAR-8 ovarian): 3.01 µM
- TGI (OVCAR-8 ovarian): > 100 µM
- GI50 (HCC-2998 colon): 3.75 µM
- TGI (HCC-2998 colon): 29.9 µM
- GI50 (UACC-257 melanoma): 1.86 µM
- TGI (UACC-257 melanoma): 7.24 µM
- GI50 (OVCAR-5 ovarian): 3.83 µM
- TGI (OVCAR-5 ovarian): > 100 µM
- GI50 (OVCAR-4 ovarian): 2.1 µM
- TGI (OVCAR-4 ovarian): 92 µM
- GI50 (DU-145 prostate): 3.85 µM
- TGI (DU-145 prostate): > 100 µM
- GI50 (HOP-92 NSCLC): 0.593 µM
- TGI (HOP-92 NSCLC): 3.9 µM
- GI50 (ACHN renal): 2.5 µM
- TGI (ACHN renal): 8.4 µM
- GI50 (CAKI-1 renal): 1.76 µM
- TGI (CAKI-1 renal): 6.66 µM
- GI50 (SNB-75 CNS): 0.558 µM
- TGI (SNB-75 CNS): 3.73 µM
- GI50 (MDA-MB-231 breast): 2.26 µM
- TGI (MDA-MB-231 breast): 7.95 µM
- GI50 (786-0 renal): 3.13 µM
- TGI (786-0 renal): 10.2 µM
- GI50 (NCI-H522 lung): 2.83 µM
- TGI (NCI-H522 lung): 39.9 µM
- GI50 (RPMI-8226 leukemia): 1.69 µM
- TGI (RPMI-8226 leukemia): 5.29 µM
- GI50 (T-47D breast): 1.81 µM
- TGI (T-47D breast): 7.19 µM
- GI50 (RXF 393 renal): 2.4 µM
- TGI (RXF 393 renal): 7.03 µM
- GI50 (SK-MEL-5 melanoma): 1.59 µM
- TGI (SK-MEL-5 melanoma): 3.34 µM
- GI50 (COLO 205 colon): 3.75 µM
- TGI (COLO 205 colon): 13.8 µM
- GI50 (SN12C renal): 2.26 µM
- TGI (SN12C renal): 9.26 µM
- GI50 (NCI/ADR-RES ovarian): 2.86 µM
- TGI (NCI/ADR-RES ovarian): 18.2 µM
- GI50 (M14 melanoma): 1.91 µM
- TGI (M14 melanoma): 6.99 µM
- GI50 (SW-620 colon): 3.06 µM
- TGI (SW-620 colon): 55.9 µM
- GI50 (U251 CNS): 2.78 µM
- TGI (U251 CNS): > 100 µM
- GI50 (MOLT-4 leukemia): 2.96 µM
- TGI (MOLT-4 leukemia): 12.2 µM
- GI50 (EKVX NSCLC): 2.23 µM
- TGI (EKVX NSCLC): 9.73 µM
- GI50 (SNB-19 CNS): 2.75 µM
- TGI (SNB-19 CNS): > 100 µM
- GI50 (SR leukemia): 3.05 µM
- TGI (SR leukemia): > 100 µM
- GI50 (MALME-3M melanoma): 1.85 µM
- TGI (MALME-3M melanoma): 5.75 µM
- GI50 (K-562 leukemia): 2.42 µM
- TGI (K-562 leukemia): > 100 µM
- GI50 (OVCAR-3 ovarian): 2.89 µM
- TGI (OVCAR-3 ovarian): > 100 µM
- GI50 (A498 renal): 1.07 µM
- TGI (A498 renal): 2.75 µM
- GI50 (KM12 colon): 2.99 µM
- TGI (KM12 colon): 10.1 µM
- GI50 (IGROV1 ovarian): 2.18 µM
- TGI (IGROV1 ovarian): > 100 µM
- GI50 (SK-MEL-2 melanoma): 2.3 µM
- TGI (SK-MEL-2 melanoma): 6.74 µM
- GI50 (UO-31 renal): 1.43 µM
- TGI (UO-31 renal): 6.01 µM

Source: PubChem BioAssay (NCI)
